The source made the active and inactive calls. The rule behind the calls is not given here.
Columns and labels:
[1] = Antibacterial activity against multidrug-resistant Pseudomonas aeruginosa CCARM 2095 assessed as fractional inhibitory concentration incubated for 24 hrs in presence of chloramphenicol by CLSI based broth dilution method; format: functional
Staphylococcus aureus [2] = test: Antibacterial activity against methicillin-resistant Staphylococcus aureus CCARM 3090 assessed as fractional inhibitory concentration incubated for 24 hrs in presence of oxacillin by CLSI based broth dilution method; format: functional
Lipopolysaccharide (LPS) [3] = test: Displacement of BODIPY-TR cadaverine from Escherichia coli O111:B4 LPS at 10 uM measured for 100 sec by spectrofluorometry relative to control
RAW264.7 [4] = test: Antiinflammatory activity against mouse RAW264.7 cells assessed as reduction in LPS-induced iNOS mRNA expression at 5 uM incubated for 6 hrs by qRT-PCR analysis; format: functional, cell-based
Cell membrane [5] = test: Induction of cell membrane permeability in Escherichia coli KCTC 1682 assessed as […] at 2 times MIC by ONPG dye based spectrophotometry; format: subcellular
Escherichia coli [6] = test: Antibacterial activity against Escherichia coli KCTC 1682 assessed as reduction in bacterial growth incubated for 24 hrs in presence of 2.5 mM CaCl2 by CLSI based broth dilution method; format: functional; conditions: read-out: MIC100
[7] = Antibacterial activity against multidrug-resistant Pseudomonas aeruginosa CCARM 2095 assessed as fractional inhibitory concentration incubated for 24 hrs in presence of ciprofloxacin by CLSI based broth dilution method; format: functional
Cell membrane [8] = test: Induction of cell membrane permeability in Staphylococcus aureus KCTC 1621 assessed as cytoplasmic membrane depolarization at 2 times MIC by SYTOX dye based fluorescence assay; format: subcellular
Escherichia coli [9] = test: Antibacterial activity against Escherichia coli KCTC 1682 assessed as reduction in bacterial growth incubated for 24 hrs in presence of 6 uM NH4Cl by CLSI based broth dilution method; format: functional; conditions: read-out: MIC100
Escherichia coli [10] = test: Antibacterial activity against Escherichia coli KCTC 1682 assessed as reduction in bacterial growth incubated for 24 hrs in presence of 4 uM FeCl3 by CLSI based broth dilution method; format: functional; conditions: read-out: MIC100
Staphylococcus aureus [11] = test: Antibacterial activity against methicillin-resistant Staphylococcus aureus CCARM 3090 assessed as fractional inhibitory concentration index incubated for 24 hrs in presence of oxacillin by CLSI based broth dilution method; format: functional
RAW264.7 [12] = test: Antiinflammatory activity against mouse RAW264.7 cells assessed as reduction in LPS-induced TNFalpha mRNA expression at 10 uM incubated for 3 hrs by qRT-PCR analysis; format: functional, cell-based
Staphylococcus aureus [13] = test: Antibacterial activity against Staphylococcus aureus KCTC 1621 assessed as reduction in bacterial growth incubated for 24 hrs in presence of 4 uM FeCl3 by CLSI based broth dilution method; format: functional; conditions: read-out: MIC100
[14] = Antibacterial activity against multidrug-resistant Pseudomonas aeruginosa CCARM 2095 assessed as fractional inhibitory concentration incubated for 24 hrs in presence of oxacillin by CLSI based broth dilution method; format: functional
Lipopolysaccharide (LPS) [15] = test: Inhibition of Escherichia coli O111:B4 LPS aggregation assessed as increase in FITC-LPS dissociation by spectrofluorometry
[16] = Antibacterial activity against multidrug-resistant Pseudomonas aeruginosa CCARM 2095 assessed as reduction in bacterial growth incubated for 24 hrs in presence of ciprofloxacin by CLSI based broth dilution method; format: functional; conditions: read-out: MIC100
Escherichia coli [17] = test: Antibacterial activity against Escherichia coli KCTC 1682 assessed as reduction in bacterial growth incubated for 24 hrs in presence of 20 % serum by CLSI based broth dilution method; format: functional; conditions: read-out: MIC100
Cell membrane [18] = test: Induction of cell membrane permeability in Staphylococcus aureus KCTC 1621 assessed as cytoplasmic membrane depolarization at 2 times MIC by DiSC3-5 dye based spectrofluorometry; format: subcellular
Staphylococcus aureus [19] = test: Antibacterial activity against methicillin-resistant Staphylococcus aureus CCARM 3090 assessed as fractional inhibitory concentration incubated for 24 hrs in presence of ciprofloxacin by CLSI based broth dilution method; format: functional
Staphylococcus aureus [20] = test: Antibacterial activity against methicillin-resistant Staphylococcus aureus CCARM 3090 assessed as reduction in bacterial growth incubated for 24 hrs in presence of oxacillin by CLSI based broth dilution method; format: functional; conditions: read-out: MIC100
Staphylococcus aureus [21] = test: Antibacterial activity against Staphylococcus aureus KCTC 1621 assessed as reduction in bacterial growth incubated for 24 hrs in presence of 6 uM NH4Cl by CLSI based broth dilution method; format: functional; conditions: read-out: MIC100
Staphylococcus aureus [22] = test: Antibacterial activity against methicillin-resistant Staphylococcus aureus CCARM 3090 assessed as fractional inhibitory concentration incubated for 24 hrs in presence of chloramphenicol by CLSI based broth dilution method; format: functional
[23] = Antibacterial activity against multidrug-resistant Pseudomonas aeruginosa CCARM 2095 assessed as reduction in bacterial growth incubated for 24 hrs in presence of oxacillin by CLSI based broth dilution method; format: functional; conditions: read-out: MIC100
Staphylococcus aureus [24] = test: Antibacterial activity against Staphylococcus aureus KCTC 1621 assessed as reduction in bacterial growth incubated for 24 hrs in presence of 4.5 mM KCl by CLSI based broth dilution method; format: functional; conditions: read-out: MIC100
Escherichia coli [25] = test: Antibacterial activity against Escherichia coli KCTC 1682 assessed as reduction in bacterial growth incubated for 24 hrs in presence of 1 mM MgCl2 by CLSI based broth dilution method; format: functional; conditions: read-out: MIC100
[26] = Antibacterial activity against multidrug-resistant Pseudomonas aeruginosa CCARM 2095 assessed as reduction in bacterial growth incubated for 24 hrs in presence of chloramphenicol by CLSI based broth dilution method; format: functional; conditions: read-out: MIC100
Staphylococcus aureus [27] = test: Antibacterial activity against Staphylococcus aureus KCTC 1621 assessed as reduction in bacterial growth incubated for 24 hrs in presence of 150 mM NaCl by CLSI based broth dilution method; format: functional; conditions: read-out: MIC100
[28] = Antibacterial activity against multidrug-resistant Pseudomonas aeruginosa CCARM 2095 assessed as fractional inhibitory concentration index incubated for 24 hrs in presence of chloramphenicol by CLSI based broth dilution method; format: functional
[29] = Antibacterial activity against multidrug-resistant Pseudomonas aeruginosa CCARM 2095 assessed as fractional inhibitory concentration index incubated for 24 hrs in presence of oxacillin by CLSI based broth dilution method; format: functional
Staphylococcus aureus [30] = test: Antibacterial activity against methicillin-resistant Staphylococcus aureus CCARM 3090 assessed as fractional inhibitory concentration index incubated for 24 hrs in presence of ciprofloxacin by CLSI based broth dilution method; format: functional
Staphylococcus aureus [31] = test: Antibacterial activity against Staphylococcus aureus KCTC 1621 assessed as reduction in bacterial growth incubated for 24 hrs in presence of 2.5 mM CaCl2 by CLSI based broth dilution method; format: functional; conditions: read-out: MIC100
Staphylococcus aureus [32] = test: Antibacterial activity against methicillin-resistant Staphylococcus aureus CCARM 3090 assessed as fractional inhibitory concentration index incubated for 24 hrs in presence of chloramphenicol by CLSI based broth dilution method; format: functional
Staphylococcus aureus [33] = test: Antibacterial activity against Staphylococcus aureus KCTC 1621 assessed as reduction in bacterial growth incubated for 24 hrs in presence of 1 mM MgCl2 by CLSI based broth dilution method; format: functional; conditions: read-out: MIC100
Staphylococcus aureus [34] = test: Antibacterial activity against methicillin-resistant Staphylococcus aureus CCARM 3090 assessed as reduction in bacterial growth incubated for 24 hrs in presence of chloramphenicol by CLSI based broth dilution method; format: functional; conditions: read-out: MIC100
[35] = Antibacterial activity against multidrug-resistant Pseudomonas aeruginosa CCARM 2095 assessed as fractional inhibitory concentration index incubated for 24 hrs in presence of ciprofloxacin by CLSI based broth dilution method; format: functional
Cell membrane [36] = test: Induction of cell membrane permeability in Escherichia coli KCTC 1682 assessed as cytoplasmic membrane […] fluorescent signals at 2 times MIC measured after 1 hr by propidium iodide dye based flow cytometry analysis (reference value: 9.8 %); format: subcellular
Staphylococcus aureus [37] = test: Antibacterial activity against Staphylococcus aureus KCTC 1621 assessed as reduction in bacterial growth incubated for 24 hrs in presence of 20 % serum by CLSI based broth dilution method; format: functional; conditions: read-out: MIC100
Staphylococcus aureus [38] = test: Antibacterial activity against methicillin-resistant Staphylococcus aureus CCARM 3090 assessed as reduction in bacterial growth incubated for 24 hrs in presence of ciprofloxacin by CLSI based broth dilution method; format: functional; conditions: read-out: MIC100
Escherichia coli [39] = test: Antibacterial activity against Escherichia coli KCTC 1682 assessed as reduction in bacterial growth incubated for 24 hrs in presence of 4.5 mM KCl by CLSI based broth dilution method; format: functional; conditions: read-out: MIC100
Escherichia coli [40] = test: Antibacterial activity against Escherichia coli KCTC 1682 assessed as reduction in bacterial growth incubated for 24 hrs in presence of 150 mM NaCl by CLSI based broth dilution method; format: functional; conditions: read-out: MIC100
RAW264.7 [41] = test: Antiinflammatory activity in mouse RAW264.7 cells assessed as neutralization of LPS binding by measuring LPS-FITC aggregation at 10 uM pretreated with LPS for 1 hr followed by compound addition and measured after 1 hr by flowcytometry analysis (reference value: 48.12 %); format: functional
RAW264.7 [42] = test: Antiinflammatory activity in mouse RAW264.7 cells assessed as suppression of LPS binding by measuring LPS-FITC aggregation at 10 uM pretreated with LPS for 1 hr followed by compound addition and measured after 30 mins by flowcytometry analysis (reference value: 67.93 %); format: functional; conditions: 0.5 h

Question: For `CC[C@H](C)[C@H](NC(=O)[C@H](CCCCN)NC(=O)[C@H](CCC(=O)O)NC(=O)[C@H](CCCCN)NC(=O)[C@H](CO)NC(=O)[C@H](CCCCN)NC(=O)[C@H](CCCNC(=N)N)NC(=O)[C@H](Cc1ccccc1)NC(=O)[C@H](Cc1ccccc1)NC(=O)[C@H](CC(=O)O)NC(=O)CNC(=O)[C@H](CC(C)C)NC(=O)[C@@H](N)CC(C)C)C(=O)NCC(=O)N[C@@H](CCCCN)C(=O)N[C@@H](CCC(=O)O)C(=O)N[C@@H](Cc1ccccc1)C(=O)N[C@@H](CCCCN)C(=O)N[C@@H](CCCNC(=N)N)C(=O)N[C@H](C(=O)N[C@H](C(=O)N[C@@H](CCC(N)=O)C(=O)N[C@@H](CCCNC(=N)N)C(=O)N[C@H](C(=O)N[C@@H](CCCCN)C(=O)N[C@@H](CC(=O)O)C(=O)N[C@@H](Cc1ccccc1)C(=O)N[C@@H](CC(C)C)C(=O)N[C@@H](CCCNC(=N)N)C(=O)N[C@@H](CC(N)=O)C(=O)N[C@@H](CC(C)C)C(=O)N[C@H](C(=O)N1CCC[C@H]1C(=O)N[C@@H](CCCNC(=N)N)C(=O)N[C@H](C(=O)N[C@@H](CCC(=O)O)C(=O)N[C@@H](CO)C(=O)O)[C@@H](C)O)C(C)C)[C@@H](C)CC)C(C)C)[C@@H](C)CC` [CATHELICIDIN], which FIC [1] is on record?
Answer: 0.5

Question: And the FIC (Staphylococcus aureus [2])?
Answer: 0.25

Question: What about the Activity (Lipopolysaccharide (LPS) [3]) of the same molecule?
Answer: 68%

Question: And the inhibition (RAW264.7 [4])?
Answer: Active

Question: And the Activity (Cell membrane [5])?
Answer: Active

Question: And the MIC (Escherichia coli [6])?
Answer: 16 µM

Question: And the FIC [7]?
Answer: 0.25

Question: What about the Activity (Cell membrane [8]) of the same molecule?
Answer: Active

Question: What about the MIC (Escherichia coli [9]) of the same molecule?
Answer: 8 µM

Question: And the MIC (Escherichia coli [10])?
Answer: 16 µM

Question: What about the “fractional inhibitory concentration index (FICI)” value (Staphylococcus aureus [11]) of the same molecule?
Answer: 0.75

Question: What about the inhibition (RAW264.7 [12]) of the same molecule?
Answer: Active

Question: And the MIC (Staphylococcus aureus [13])?
Answer: 16 µM

Question: What about the FIC [14] of the same molecule?
Answer: 0.25

Question: And the inhibition (Lipopolysaccharide (LPS) [15])?
Answer: Dose-dependent effect

Question: And the MIC [16]?
Answer: 128 µM

Question: And the MIC (Escherichia coli [17])?
Answer: 8 µM

Question: And the Activity (Cell membrane [18])?
Answer: Active

Question: What about the FIC (Staphylococcus aureus [19]) of the same molecule?
Answer: 0.5

Question: What about the MIC (Staphylococcus aureus [20]) of the same molecule?
Answer: 128 µM

Question: What about the MIC (Staphylococcus aureus [21]) of the same molecule?
Answer: 8 µM

Question: What about the FIC (Staphylococcus aureus [22]) of the same molecule?
Answer: 0.5

Question: What about the MIC [23] of the same molecule?
Answer: 128 µM

Question: And the MIC (Staphylococcus aureus [24])?
Answer: 8 µM

Question: What about the MIC (Escherichia coli [25]) of the same molecule?
Answer: 16 µM

Question: What about the MIC [26] of the same molecule?
Answer: 512 µM

Question: What about the MIC (Staphylococcus aureus [27]) of the same molecule?
Answer: 16 µM

Question: And the “fractional inhibitory concentration index (FICI)” value [28]?
Answer: 1

Question: What about the “fractional inhibitory concentration index (FICI)” value [29] of the same molecule?
Answer: 0.75

Question: And the “fractional inhibitory concentration index (FICI)” value (Staphylococcus aureus [30])?
Answer: 1

Question: And the MIC (Staphylococcus aureus [31])?
Answer: 16 µM

Question: And the “fractional inhibitory concentration index (FICI)” value (Staphylococcus aureus [32])?
Answer: 0.75

Question: And the MIC (Staphylococcus aureus [33])?
Answer: 8 µM

Question: What about the MIC (Staphylococcus aureus [34]) of the same molecule?
Answer: 64 µM

Question: What about the “fractional inhibitory concentration index (FICI)” value [35] of the same molecule?
Answer: 1.25

Question: And the Activity (Cell membrane [36])?
Answer: 70.1%

Question: What about the MIC (Staphylococcus aureus [37]) of the same molecule?
Answer: 8 µM

Question: What about the MIC (Staphylococcus aureus [38]) of the same molecule?
Answer: 256 µM

Question: And the MIC (Escherichia coli [39])?
Answer: 8 µM

Question: And the MIC (Escherichia coli [40])?
Answer: 16 µM

Question: And the Activity (RAW264.7 [41])?
Answer: 13.98%

Question: What about the Activity (RAW264.7 [42]) of the same molecule?
Answer: 25.44%
